Laboratory results: US11634417B2 (Array BioPharma Inc., priority 2019, dated 2023)

Assays:
[1] = system: ERK1/2 (Thr202/Tyr204) phosphorylation in KYSE520 cells; experiment: Cellular Phospho-p44/42 MAPK (Erk1/2) (Thr202/Tyr204) assay, In-Cell Western; assay type: cell-based; details: Homo sapiens, KYSE-520; KYSE520 cells, 1 hour incubation, pERK signal normalized to GAPDH; single assay or mean of multiple assays; read-out: Biological Example 2 IC50
Procedure: Inhibition of ERK1/2 (Thr202/Tyr204) phosphorylation was determined by the following cellular assay, which comprises incubating cells with a compound for 1 hour and quantifying pERK signal by In-Cell Western on fixed cells and normalizing to GAPDH signal. KYSE520 cells were obtained from DSMZ and grown in RPMI supplemented with 10% fetal bovine serum, penicillin/streptomycin, 2 mM L-alanyl-L-glutamine dipeptide in 0.85% NaCl (Glutamax™), non-essential amino acids, and sodium pyruvate. Cells were plated in 96-well plates at 30,000 cells/well and allowed to attach overnight at 37° C./5% CO2. Cells were treated with compounds prepared as a 10-point, 1:3 dilution series (range: 20 μM-1 nM), with a final DMSO concentration of 0.5%. After 1 hour incubation, cells were fixed in 3.7% formaldehyde in Dulbecco's phosphate-buffered saline (“dPBS”) at room temperature for 20 minutes. Cells were then washed with dPBS and permeabilized in 100% MeOH at room temperature for 10 minutes. Following permeabilization, cells were washed in dPBS and incubated in LI-COR Blocking Buffer (LI-COR Biosciences, Cat #927-40000) for 1 hour or longer. Plates were then incubated with an antibody specific for the MEK-dependent ERK1/2 phosphorylation sites, threonine 202 and tyrosine 204 (Cell Signaling Technologies; Cat #9101), downstream of SHP2 in the MAP kinase signal transduction pathway, as well as GAPDH (Millipore; Cat #MAB374). pErk1/2 (Thr202/Tyr204) antibody was diluted in LI-COR blocking buffer containing 0.05% polysorbate-20 (Tween-20) at 1:250; GAPDH was diluted at 1:2,500. The plates were incubated overnight at 4° C. After washing with PBS/0.05% Tween-20, the cells were incubated with fluorescently-labeled secondary antibodies (Anti-rabbit-Alexa Flour680, Invitrogen Cat #A21109; Anti-mouse-IRDye800CW, Li-cor Bioscieces Cat #926-32210, both at 1:1000 dilution) for 1 hour. Cells were then washed, as above, and analyzed for fluorescence at both 680 nm and 800 nm wavelengths using the Aerius Infrared Imaging System (LI-COR Biosciences, Model 9250). Phosphorylated Erk1/2 ([…]) signal was normalized to GAPDH signal for each well. IC50 values were calculated from the normalized values using a 4-parameter fit in BioAssay software. The reported IC50 in Table 2 may be from a single assay or the mean of multiple assays.

[2] = molecular target: T1, full-length SHP2 (Homo sapiens, UniProt Q06124); experiment: SHP2 enzymatic assay (fluorescence intensity kinetic assay, DiFMUP hydrolysis); assay type: biochemical; details: 1 nM His6-tagged SHP2(2-527), 1 μM activating peptide, 50 μM DiFMUP; single assay or mean of multiple assays; read-out: Biological Example 1 IC50
T1 construct: 1 nM full-length SHP2 (His6-tagged SHP2(2-527), recombinantly expressed in E. coli and purified in-house); His6; made in house; host or cells: E. coli
T1 sequence (Q06124 2-527): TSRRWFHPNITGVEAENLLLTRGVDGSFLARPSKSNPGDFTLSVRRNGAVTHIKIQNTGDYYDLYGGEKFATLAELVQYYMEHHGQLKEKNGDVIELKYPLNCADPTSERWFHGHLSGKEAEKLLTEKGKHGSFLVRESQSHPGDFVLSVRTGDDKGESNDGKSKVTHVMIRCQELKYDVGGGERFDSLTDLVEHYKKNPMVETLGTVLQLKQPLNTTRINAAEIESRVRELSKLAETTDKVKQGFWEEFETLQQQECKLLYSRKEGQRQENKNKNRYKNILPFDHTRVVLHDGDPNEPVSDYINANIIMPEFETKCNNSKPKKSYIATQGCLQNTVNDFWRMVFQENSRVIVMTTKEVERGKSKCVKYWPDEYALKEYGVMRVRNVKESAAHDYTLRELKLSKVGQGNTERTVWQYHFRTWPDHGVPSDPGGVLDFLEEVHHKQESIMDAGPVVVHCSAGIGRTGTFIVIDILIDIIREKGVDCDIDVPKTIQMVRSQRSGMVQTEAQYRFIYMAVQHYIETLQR
Procedure: A fluorescence intensity kinetic assay was configured for full-length SHP2 that monitors the amount of 6,8-difluoro-7-hydroxy-4-methylcoumarin (“DiFMU”) formed upon hydrolysis of 6,8-difluoro-4-methylumbelliferyl phosphate (“DiFMUP”) by SHP2. […] Low control wells lacked enzyme. The assays were initiated by the addition of a mixture of SHP2 and the activating peptide, and following a 15 second mix on an orbital shaker, were read in kinetic mode for 15 minutes (30 seconds/cycle) at ambient temperature on a PerkinElmer EnVision microplate reader (kEx=355 nm, kEm=460 nm). Initial velocities (slopes of the tangents at t=0) were estimated from exponential fits to the slightly nonlinear progress curves and then were converted to percent of control (“POC”) using the following equation:
[formula] • Where: xmax Average Uninhibited Controls • Xmin Average Background A 4-parameter logistic model was the fit to the POC data for each compound. From that fit, the IC50 was estimated and is defined as the concentration of compound at which the curve crosses 50 POC.

Structure (SMILES) | IC50 [2] [µM] | IC50 [1] [µM]
C[C@@H]1OCC2(CCN(c3ncc(Sc4cccc(Cl)c4Cl)nn3)CC2)[C@@H]1N [Example 7, (3S,4S)-8-(6-((2,3-dichlorophenyl)thio)-1,2,4-triazin-3-yl)-3-methyl-2-oxa-8-azaspiro[4.5]decan-4-amine] | 0.017 | 0.089
N[C@@H]1c2ccccc2CC12CCN(c1ncc(-c3cccc(Cl)c3)nn1)CC2 [Example 80, (S)-1′-(6-(3-chlorophenyl)-1,2,4-triazin-3-yl)-1,3-dihydrospiro[indene-2,4′-piperidin]-1-amine] | 0.429 | 2.99
C[C@@H]1OCC2(CCN(c3ncc(Sc4ccnc5c4ccn5C)nn3)CC2)[C@@H]1N [Example 29, (3S,4S)-3-methyl-8-(6-((1-methyl-1H-pyrrolo[2,3-b]pyridin-4-yl)thio)-1,2,4-triazin-3-yl)-2-oxa-8-azaspiro[4.5]decan-4-amine] | 0.096 | 0.206
CC1(N)CCCN(c2ncc(Sc3cccc(Cl)c3Cl)nn2)CC1 (centres unmarked) [Example 11, 1-(6-((2,3-dichlorophenyl)thio)-1,2,4-triazin-3-yl)-4-methylazepan-4-amine] | 0.21 | 1.97
N[C@@H]1c2ccccc2CC12CCN(c1ncc(Cc3ccccc3)nn1)CC2 [Example 33, (S)-1′-(6-benzyl-1,2,4-triazin-3-yl)-1,3-dihydrospiro[indene-2,4′-piperidin]-1-amine] | 0.098 | 0.366
Cc1nc(N2CCC3(CC2)CO[C@@H](C)[C@H]3N)nnc1-c1cccc(Cl)c1Cl [Example 5, (3S,4S)-8-(6-(2,3-dichlorophenyl)-5-methyl-1,2,4-triazin-3-yl)-3-methyl-2-oxa-8-azaspiro[4.5]decan-4-amine] | 0.028 | 0.337
Nc1c(Cl)c(Sc2cnc(N3CCC4(CC3)Cc3ccccc3[C@H]4N)nn2)cc[n+]1[O-] [Example 34, (S)-2-amino-4-((3-(1-amino-1,3-dihydrospiro[indene-2,4′-piperidin]-1′-yl)-1,2,4-triazin-6-yl)thio)-3-chloropyridine 1-oxide] | 0.079 | 0.009
N[C@@H]1c2ccccc2CC12CCN(c1ncc(Sc3c[nH]c4ncccc34)nn1)CC2 [Example 26, (S)-1′-(6-((1H-pyrrolo[2,3-b]pyridin-3-yl)thio)-1,2,4-triazin-3-yl)-1,3-dihydrospiro[indene-2,4′-piperidin]-1-amine] | 0.049 | 0.12
N[C@@H]1c2ccccc2CC12CCN(c1ncc(Oc3ccccc3)nn1)CC2 [Example 81, (S)-1′-(6-phenoxy-1,2,4-triazin-3-yl)-1,3-dihydrospiro[indene-2,4′-piperidin]-1-amine] | 0.004 | 0.008
N[C@@H]1c2ccccc2CC12CCN(c1ncc(Oc3cccc4cnccc34)nn1)CC2 [Example 28, (S)-1′-(6-(isoquinolin-5-yloxy)-1,2,4-triazin-3-yl)-1,3-dihydrospiro[indene-2,4′-piperidin]-1-amine] | 0.879 | 1.14
N[C@@H]1c2ccccc2CC12CCN(c1ncc(Sc3ccnc(NCCO)c3Cl)nn1)CC2 [Example 83, (S)-2-((4-((3-(1-amino-1,3-dihydrospiro[indene-2,4′-piperidin]-1′-yl)-1,2,4-triazin-6-yl)thio)-3-chloropyridin-2-yl)amino)ethan-1-ol] | 0.046 | 0.003
N[C@@H]1c2ccccc2CC12CCN(c1ncc(Sc3cccc4c3CC4)nn1)CC2 [Example 37, (S)-1′-(6-(bicyclo[4.2.0]octa-1(6),2,4-trien-2-ylthio)-1,2,4-triazin-3-yl)-1,3-dihydrospiro[indene-2,4′-piperidin]-1-amine] | 0.011 | 0.031

Now from value to compound, other results behind:

IC50 [2] [µM] | Structure (SMILES) | IC50 [1] [µM]
0.041 | Nc1nccc(Sc2cnc(N3CCC4(CC3)Cc3nc(Cl)sc3C4N)nn2)c1Cl (centres unmarked) [Example 76, 1′-(6-((2-amino-3-chloropyridin-4-yl)thio)-1,2,4-triazin-3-yl)-2-chloro-4,6-dihydrospiro[cyclopenta[d]thiazole-5,4′-piperidin]-6-amine] | 0.004
0.142 | COc1cnc2c(c1)[C@H](N)C1(CCN(c3ncc(Sc4ccnc(N)c4Cl)nn3)CC1)C2 (single isomer, unassigned) [Example 43] | 0.509
0.079 | CNc1nccc(Sc2cnc(N3CCC4(CC3)Cc3cc(C#N)ccc3[C@H]4N)nn2)c1Cl (single isomer, unassigned) [Example 41] | 0.019
0.209 | CNc1nccc(Sc2cnc(N3CCC4(CC3)Cc3cc(C#N)ccc3[C@@H]4N)nn2)c1Cl (single isomer, unassigned) [Example 42] | 0.813
0.046 | CNc1nccc(Sc2cnc(N3CCC4(CC3)Cc3ccccc3[C@H]4N)nn2)c1Cl [Example 53, (S)-1′-(6-((3-chloro-2-(methylamino)pyridin-4-yl)thio)-1,2,4-triazin-3-yl)-1,3-dihydrospiro[indene-2,4′-piperidin]-1-amine] | 0.004
0.116 | COc1nccc(Sc2cnc(N3CCC4(CC3)Cc3ccccc3[C@H]4N)nn2)c1Cl [Example 55, (S)-1′-(6-((3-chloro-2-methoxypyridin-4-yl)thio)-1,2,4-triazin-3-yl)-1,3-dihydrospiro[indene-2,4′-piperidin]-1-amine] | 0.023
0.062 | Cc1nccc(Sc2cnc(N3CCC4(CC3)Cc3ccccc3[C@H]4N)nn2)c1Cl [Example 54, (S)-1′-(6-((3-chloro-2-methylpyridin-4-yl)thio)-1,2,4-triazin-3-yl)-1,3-dihydrospiro[indene-2,4′-piperidin]-1-amine] | 0.007
0.026 | Nc1nccc(Sc2cnc(N3CCC4(CC3)Cc3c(Cl)cccc3[C@H]4N)nn2)c1Cl [Example 35, (S)-1′-(6-((2-amino-3-chloropyridin-4-yl)thio)-1,2,4-triazin-3-yl)-4-chloro-1,3-dihydrospiro[indene-2,4′-piperidin]-1-amine] | 0.009
0.015 | Nc1cc(Sc2cnc(N3CCC4(CC3)Cc3ccccc3[C@H]4N)nn2)c(Cl)cn1 [Example 18, (S)-1′-(6-((2-amino-5-chloropyridin-4-yl)thio)-1,2,4-triazin-3-yl)-1,3-dihydrospiro[indene-2,4′-piperidin]-1-amine] | 0.008
0.109 | Cc1ccc2c(n1)CC1(CCN(c3ncc(Sc4ccnc(N)c4Cl)nn3)CC1)[C@H]2N [Example 60] | 0.528
